Assay results published in patent publication US8367367B2, “Kit for positively detecting toxic material” (Samsung Electronics Co., Ltd., priority 2006, dated 2013).
Where two headings read alike, the source gives them in different places.

How the values were obtained:
[1] = tested on: electron transfer system of the sub-mitochondrial particles
Excerpt: NaOH was adequately added to a pH indicator, phenol red, to adjust the pH to 10. […] The reaction resultants obtained by the above process and a phenol red solution were mixed together with the weight ratio of 1:1 to identify the color of the mixture solution.

[2] = tested on: electron transfer system of the sub-mitochondrial particles; settings: 10 min
Procedure: FIG. 3A is a graph illustrating the pH values at one-minute intervals when 20 wt % of ethanol, (toxic material) and 20 wt % of sorbitol (non-toxic material) are added to sub-mitochondrial particles and an electron donor to cause reactions.
FIGS. 5A and 5B illustrate an exemplary embodiment of a method of positively detecting toxic materials in which phenolphthalein is used as a pH indicator. FIG. 5A is a graph illustrating pH values at two-minute intervals when 20 wt % of ethanol (toxic material), 2.5 wt % of ethanol (toxic material), and 20 wt % of sorbitol (non-toxic material) were added to sub-mitochondrial particles and an electron donor to cause reactions. FIG. 5B is a graph and showing the final pH value of each reactant after the reaction solutions were allowed to react for 10 minutes according to the reaction described in FIG. 5A.

SMILES	color of the mixture solution (phenol red) [1]	final pH of the reaction resultant ([2]; 20 wt %)	final pH of the reaction resultant ([2]; 2.5 wt %)
OC[C@@H](O)[C@@H](O)[C@H](O)[C@@H](O)CO [sorbitol]	remain the same	9.17	–
CCO [ethanol]	–	6.43	8.16
